Measurements published in patent publication US8686146B2, “Azaindenoisoquinoline topoisomerase I inhibitors” (Purdue Research Foundation, priority 2012, dated 2014).
Structures can show the parent of a compound that is named as a salt. Where two headings read alike, the source gives them in different places.

How the values were obtained:
OVCAR-3 = assay: NCI screen antiproliferative activity, ovarian OVCAR-3
Procedure: (§1) Cells of approximately 60 different human cancer cell lines were incubated for 48 h with five 10-fold dilutions of the tested compounds starting from 100 μM and then treated with sulforhodamine B dye. The ratios of recorded optical densities relative to that of the control were plotted as a function of the common logarithm of the tested compound concentrations. […] The GI50 and the mean graph midpoint (MGM) values of the prepared indenoisoquinolines in selected cell lines are presented in Table I.
(§2) The antiproliferative activity of each compound was determined in the National Cancer Institute (NCI) screen as described above. Cells of approximately 60 different human cancer cell lines were incubated for 48 h with five 10-fold dilutions of the test compounds starting from 100 μM, and then treated with sulforhodamine B dye. The ratios of recorded optical densities relative to those of the control were plotted as a function of the common logarithm of the tested compound concentrations. […] The GI50 and the mean graph midpoint (MGM) values of the prepared (aza)indeno-isoquinolines in selected cell lines are presented in Table 2.

MCF7 = assay: NCI screen antiproliferative activity, breast MCF7
Procedure: as §1, §2

SF-539 = assay: NCI screen antiproliferative activity, CNS SF-539
Procedure: as §1, §2

UACC-62 = assay: NCI screen antiproliferative activity, melanoma UACC-62
Procedure: as §1, §2

[1] = system: approximately 60 different human cancer cell lines; assay: NCI screen, mean graph midpoint over all cell lines; format: cell-based; conditions: all human cancer cell lines successfully tested, 48 h
Procedure: as §1, §2

HCT-116 = assay: NCI screen antiproliferative activity, colon HCT-116
Procedure: as §1, §2

SN12C = assay: NCI screen antiproliferative activity, renal SN12C
Procedure: as §1, §2

HOP-62 = assay: NCI screen antiproliferative activity, lung HOP-62
Procedure: as §1, §2

human recombinant Top1 = target: T1, human recombinant Top1 (Homo sapiens, UniProt P11387); assay: Top1-mediated DNA cleavage assay; format: biochemical; conditions: semiquantitative, relative to compounds 1 and 2
T1 construct: made in house
T1 sequence (P11387 1-765): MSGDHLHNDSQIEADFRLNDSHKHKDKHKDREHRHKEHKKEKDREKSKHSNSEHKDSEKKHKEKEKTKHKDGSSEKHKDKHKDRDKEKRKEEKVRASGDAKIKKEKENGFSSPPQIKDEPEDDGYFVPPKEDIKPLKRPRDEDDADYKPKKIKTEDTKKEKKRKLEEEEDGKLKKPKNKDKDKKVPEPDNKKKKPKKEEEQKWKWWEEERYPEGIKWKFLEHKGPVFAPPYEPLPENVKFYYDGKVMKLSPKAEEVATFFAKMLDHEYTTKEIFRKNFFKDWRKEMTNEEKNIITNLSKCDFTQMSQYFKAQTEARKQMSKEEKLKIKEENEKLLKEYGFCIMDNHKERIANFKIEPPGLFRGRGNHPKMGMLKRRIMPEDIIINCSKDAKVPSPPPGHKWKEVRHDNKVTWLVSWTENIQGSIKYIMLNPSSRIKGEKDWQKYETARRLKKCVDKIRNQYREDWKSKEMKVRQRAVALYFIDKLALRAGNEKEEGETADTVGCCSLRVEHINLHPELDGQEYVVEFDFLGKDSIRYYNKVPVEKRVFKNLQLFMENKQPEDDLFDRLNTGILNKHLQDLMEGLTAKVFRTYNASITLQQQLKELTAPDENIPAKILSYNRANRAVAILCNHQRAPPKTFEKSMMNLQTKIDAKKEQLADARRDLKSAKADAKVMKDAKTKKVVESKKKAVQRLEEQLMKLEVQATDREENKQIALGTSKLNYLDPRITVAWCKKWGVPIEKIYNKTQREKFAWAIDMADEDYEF
Procedure: Unincorporated [^32P]dGTP was removed using mini Quick […] columns (Roche, Indianapolis, Ind.), and the eluate containing the […] DNA substrate was collected. […] Aliquots of each reaction mixture were subjected to 20% denaturing PAGE. […] The DNA fragments were separated on a denaturing gel. […] All of the target compounds were tested for induction of DNA damage in Top1-mediated DNA cleavage assays, as described above.

DU-145 = assay: NCI screen antiproliferative activity, prostate DU-145
Procedure: as §1, §2

COc1cc2c3c(n(CCCN(C)C)c(=O)c2cc1OC)-c1ncccc1C3=O [Compound 19, 7-Aza-5,6-dihydro-6-(3-dimethylaminopropyl)-2,3-dimethoxy-5,11-dioxo-11H-indeno[1,2-c]isoquinoline Hydrochloride]
GI50 (OVCAR-3; Homo sapiens, OVCAR-3, 48 h, read-out: cytotoxicity (GI50) ovarian OVCAR-3, 48 h, sulforhodamine B, single determination, Table 1): 3550 nM | GI50 (OVCAR-3; Homo sapiens, OVCAR-3, 48 h, read-out: cytotoxicity (GI50) ovarian OVCAR-3, 48 h, sulforhodamine B, single determination, Table 2): 3600 nM | GI50 (MCF7; Homo sapiens, MCF7, 48 h, read-out: cytotoxicity (GI50) breast MCF7, 48 h, sulforhodamine B, single determination, Table 1): 440 nM | GI50 (SF-539; Homo sapiens, 48 h, read-out: cytotoxicity (GI50) CNS SF-539, 48 h, sulforhodamine B, single determination, Table 2): 4100 nM | GI50 (UACC-62; Homo sapiens, UACC-62, 48 h, read-out: cytotoxicity (GI50) melanoma UACC-62, 48 h, sulforhodamine B, single determination, Table 1): 13200 nM | GI50 (UACC-62; Homo sapiens, UACC-62, 48 h, read-out: cytotoxicity (GI50) melanoma UACC-62, 48 h, sulforhodamine B, single determination, Table 2): 13000 nM | MGM (mean graph midpoint for growth inhibition) ([1]; Table 1): 4.50 µM | MGM (mean graph midpoint for growth inhibition) ([1]; Table 2): 4.5 µM | GI50 (HCT-116; Homo sapiens, HCT-116, 48 h, read-out: cytotoxicity (GI50) colon HCT-116, 48 h, sulforhodamine B, single determination, Table 1): 1580 nM | GI50 (HCT-116; Homo sapiens, HCT-116, 48 h, read-out: cytotoxicity (GI50) colon HCT-116, 48 h, sulforhodamine B, single determination, Table 2): 1600 nM | GI50 (SN12C; Homo sapiens, SN12C, 48 h, read-out: cytotoxicity (GI50) renal SN12C, 48 h, sulforhodamine B, single determination, Table 1): 3160 nM | GI50 (SN12C; Homo sapiens, SN12C, 48 h, read-out: cytotoxicity (GI50) renal SN12C, 48 h, sulforhodamine B, single determination, Table 2): 3200 nM | GI50 (HOP-62; Homo sapiens, HOP-62, 48 h, read-out: cytotoxicity (GI50) lung HOP-62, 48 h, sulforhodamine B, single determination, Table 1): 3390 nM | GI50 (HOP-62; Homo sapiens, HOP-62, 48 h, read-out: cytotoxicity (GI50) lung HOP-62, 48 h, sulforhodamine B, single determination, Table 2): 3400 nM | Top1 Cleavage (human recombinant Top1; Table 1): +++ | Top1 Cleavage (human recombinant Top1; Table 2): +++ | GI50 (DU-145; Homo sapiens, DU-145, 48 h, read-out: cytotoxicity (GI50) prostate DU-145, 48 h, sulforhodamine B, single determination, Table 2): 1700 nM

O=C1c2cccnc2-c2c1c1ccccc1c(=O)n2CCCn1ccnc1 [Compound 28, 7-Aza-5,6-dihydro-6-(3-(1H-imidazol-1-yl)propyl)-5,11-dioxo-11H-indeno[1,2-c]isoquinoline]
GI50 (OVCAR-3): 8710 nM | GI50 (MCF7): 3390 nM | GI50 (SF-539): 5130 nM | GI50 (UACC-62): 35500 nM | MGM (mean graph midpoint for growth inhibition) ([1]; Table 1): 7.24 µM | GI50 (HCT-116): 1200 nM | GI50 (SN12C): 3720 nM | GI50 (HOP-62): 7240 nM | Top1 Cleavage (human recombinant Top1; Table 1): ++ | GI50 (DU-145): 2880 nM

COc1cc2c3c(n(CCCN(C)C)c(=O)c2cc1OC)-c1ncccc1C3=O (as salt: hydrochloride) [Compound 19, 7-Aza-5,6-dihydro-6-(3-dimethylaminopropyl)-2,3-dimethoxy-5,11-dioxo-11H-indeno[1,2-c]isoquinoline Hydrochloride]
melting point: 278 to 281 °C (dec.)

COc1cnc2c(c1)C(=O)c1c-2n(CCCN(C)C)c(=O)c2cc([N+](=O)[O-])ccc12 [Compound 65, 7-Aza-5,6-dihydro-6-(3-dimethylaminopropyl)-9-methoxy-3-nitro-5,11-dioxo-11H-indeno[1,2-c]isoquinoline]
GI50 (OVCAR-3): 140 nM | GI50 (MCF7): 24 nM | GI50 (SF-539): 78 nM | GI50 (UACC-62): 52 nM | MGM (mean graph midpoint for growth inhibition) ([1]; Table 2): 0.11 µM | GI50 (HCT-116): 74 nM | GI50 (SN12C): 57 nM | GI50 (HOP-62): 54 nM | Top1 Cleavage (human recombinant Top1; Table 2): +++ | GI50 (DU-145): 51 nM

CN(C)CCCn1c2c(c3ccccc3c1=O)C(=O)c1cccnc1-2 (as salt: hydrochloride) [Compound 18, 7-Aza-5,6-dihydro-6-(3-dimethylaminopropyl)-5,11-dioxo-11H-indeno[1,2-c]-isoquinoline Hydrochloride]
melting point: 268 to 270 °C

Cl.O=C1c2cccnc2-c2c1c1ccccc1c(=O)n2CCCNCCO [Compound 30, 7-Aza-5,6-dihydro-6-(3-(2-hydroxyethylamino)propyl)-5,11-dioxo-11H-indeno[1,2-c]isoquinoline Hydrochloride]
GI50 (OVCAR-3): 1550 nM | GI50 (MCF7): 480 nM | GI50 (SF-539): 870 nM | GI50 (UACC-62): 3090 nM | MGM (mean graph midpoint for growth inhibition) ([1]; Table 1): 1.29 µM | GI50 (HCT-116): 300 nM | GI50 (SN12C): 760 nM | GI50 (HOP-62): 1410 nM | Top1 Cleavage (human recombinant Top1; Table 1): + (+ weak activity;) | GI50 (DU-145): 410 nM
